Test results taken from patent US10813903B2, “Compositions comprising 15-HEPE and methods of using the same” (Afimmune Limited, priority 2013, dated 2020).

Test system: STAM model of Non-alcoholic Steatohepatitis
Assay: in vivo efficacy study of 15-OHEPA and EPA in STAM model of non-alcoholic steatohepatitis
Parameters: species or system C57BL/6 mice
Settings: for liver weight as compared to the vehicle control: FIG. 1.2; for NAFLD Activity score (NAS) as compared to the vehicle control: HE staining, FIGS. 2.1 and 2.2
From the text: The purpose of this study was to examine the effects of 15-OHEPA and EPA in the STAM model of Non-alcoholic Steatohepatitis. Pathogen-free15-day-pregnant C57BL/6 mice were obtained from Charles River Laboratories in Japan Inc. (Kanagawa, Japan). NASH was established in male mice by a single subcutaneous injection of streptozotocin (STZ) (Sigma, USA) after birth and feeding with a high fat diet (HFD; CLEA) Japan, Japan) ad libitum after 4 weeks of age (day 28±2). Mice were randomized into 5 groups of 8 mice at 5 weeks of age (day 35±2) the day before the start of treatment. During the treatment period, individual body weight was measured daily as well as clinical signs of behavior and survival. Group 1 (Vehicle): Eight NASH mice were orally administered vehicle [olive oil] in a volume of 10 mL/kg once daily from 5 to 9 weeks of age. Group 2 (15-OHEPA 50 mg/kg): Eight NASH mice were orally administered vehicle supplemented with 15-OHEPA at a dose of 50 mg/kg once daily from 5 to 9 weeks of age. Group 3 (15-OHEPA 500 mg/kg): Eight NASH mice were orally administered vehicle supplemented with 15-OHEPA at a dose of 500 mg/kg once daily from 5 to 9 weeks of age. Group 4 (EPA 500 mg/kg): Eight NASH mice were orally administered vehicle supplemented with EPA at a dose 500 mg/kg once daily from 5 to 9 weeks of age. Group 5 (positive control): Eight NASH mice were orally administered pure water supplemented with Telmisartan at a dose of 10 mg/kg once daily from 5 to 9 weeks of age. At 9 weeks of age, all mice were sacrificed and the following data was recorded; • Individual liver weight • Liver to body weight ratio Histopathological analyses of liver sections were performed using HE staining (to estimate NAFLD Activity score). For HE staining, sections were cut from paraffin blocks of liver tissue prefixed in Bouin's solution and stained with Lillie-Mayer's Hematoxylin (Muto Pure Chemicals, Japan) and eosin solution (Wako Pure Chemical Industries). NAFLD Activity score (NAS) was calculated according to the criteria of Kleiner (Kleiner D E. et al., Hepatology, 2005; 41:1313). Statistical tests were performed using Bonferroni Multiple Comparison Test. P values <0.05 were considered statistically significant.

[1] = 15-OHEPA 500 mg/kg oral once daily from 5 to 9 weeks of age
[2] = positive control, Telmisartan 10 mg/kg oral once daily from 5 to 9 weeks of age

Compound | liver weight as compared to the vehicle control [1] | NAFLD Activity score (NAS) as compared to the vehicle control [1] | potency in the treatment of FLD relative to EPA (summary statement) | liver weight as compared to the vehicle control [2] | NAFLD Activity score (NAS) as compared to the vehicle control [2]
CCC=CCC(O)C=CC=CCC=CCC=CCCCC(=O)O (centres unmarked) [15-OHEPA, 15-Hydroxy-eicosa-5,8,11,13,17-pentaenoic acid] | significant reduction | significantly decreased | more potent than EPA | – | –
CCCc1nc2c(C)cc(-c3nc4ccccc4n3C)cc2n1Cc1ccc(-c2ccccc2C(=O)O)cc1 [telmisartan, Telmisartan, reference compound] | – | – | – | significant reduction | significantly decreased
